Assay results reported in patent US9102678B2, “Compounds and methods for inhibiting mitotic progression” (Millennium Pharmaceuticals, Inc., priority 2004, dated 2015).

Biological target: T1, recombinant murine Aurora A enzyme (Mus musculus, UniProt P97477)
T1 construct: hexahistidine (His6) (N); made in house; host or cells: insect cells, baculovirus (Bac-to-Bac, Invitrogen)
Experiment: Aurora A DELFIA Kinase Assay
Format: biochemical
Details: mouse Aurora A, 250 μM ATP; threshold less than or equal to 100 nM; read-out: IC50

T1 sequence (P97477 whole entry): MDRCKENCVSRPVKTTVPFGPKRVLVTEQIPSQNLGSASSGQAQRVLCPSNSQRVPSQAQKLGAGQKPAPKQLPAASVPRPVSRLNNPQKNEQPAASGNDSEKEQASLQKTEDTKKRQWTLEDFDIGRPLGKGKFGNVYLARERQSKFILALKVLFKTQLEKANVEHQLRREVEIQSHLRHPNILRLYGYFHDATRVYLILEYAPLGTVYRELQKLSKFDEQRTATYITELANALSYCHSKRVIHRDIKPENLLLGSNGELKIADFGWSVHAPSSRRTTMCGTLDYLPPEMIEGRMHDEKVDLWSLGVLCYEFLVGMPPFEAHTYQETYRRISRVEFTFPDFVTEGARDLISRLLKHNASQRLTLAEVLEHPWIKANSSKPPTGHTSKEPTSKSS

IC50, ≤ 100 nM:
CN(C)C1CN(C(=N)NC(=O)c2ccc(Nc3ncc4c(n3)-c3ccc(Cl)cc3C(c3c(F)cccc3F)=NC4)cc2)C1 [Compound I-259, 4-{[9-chloro-7-(2,6-difluorophenyl)-5H-pyrimido[5,4-d][2]benzazepin-2-yl]amino}-N-[[3-(dimethylamino)azetidin-1-yl](imino)methyl]benzamide]
CC(C)(N)CNC(=O)c1ccc(Nc2ncc3c(n2)-c2ccc(Cl)cc2C(c2c(F)cccc2F)=NC3)cc1 [Compound I-260, N-(2-amino-2-methylpropyl)-4-{[9-chloro-7-(2,6-difluorophenyl)-5H-pyrimido[5,4-d][2]benzazepin-2-yl]amino}benzamide]
CNCCCN(C)C(=O)c1ccc(Nc2ncc3c(n2)-c2ccc(Cl)cc2C(c2c(F)cccc2OC)=NC3)cc1 [Compound I-261, 4-{[9-chloro-7-(2-fluoro-6-methoxyphenyl)-5H-pyrimido[5,4-d][2]benzazepin-2-yl]amino}-N-methyl-N-[3-(methylamino)propyl]benzamide]
COc1cccc(F)c1C1=NCc2cnc(Nc3ccc(C(=O)N4CCCC(N)C4)cc3)nc2-c2ccc(Cl)cc21 (centres unmarked) [Compound I-262]
CNC1CCCN(C(=O)c2ccc(Nc3ncc4c(n3)-c3ccc(Cl)cc3C(c3c(F)cccc3OC)=NC4)cc2)C1 (centres unmarked) [Compound I-263, 9-chloro-7-(2-fluoro-6-methoxyphenyl)-N-(4-{[3-(methylamino)piperidin-1-yl]carbonyl}phenyl)-5H-pyrimido[5,4-d][2]benzazepin-2-amine]
COc1cccc(F)c1C1=NCc2cnc(Nc3ccc(C(=O)N(C)CCCN)cc3)nc2-c2ccc(Cl)cc21 [Compound I-264, N-(3-aminopropyl)-4-{[9-chloro-7-(2-fluoro-6-methoxyphenyl)-5H-pyrimido[5,4-d][2]benzazepin-2-yl]amino}-N-methylbenzamide]
COc1cccc(F)c1C1=NCc2cnc(Nc3ccc(C(=O)N(C)CCN)cc3)nc2-c2ccc(Cl)cc21 [Compound I-265, N-(2-aminoethyl)-4-{[9-chloro-7-(2-fluoro-6-methoxyphenyl)-5H-pyrimido[5,4-d][2]benzazepin-2-yl]amino}-N-methylbenzamide]
O=C(O)C1CN(C(=O)c2ccc(Nc3ncc4c(n3)-c3ccc(Cl)cc3C(c3c(F)cccc3F)=NC4)cc2)CCN1 (centres unmarked) [Compound I-266, 4-(4-{[9-chloro-7-(2,6-difluorophenyl)-5H-pyrimido[5,4-d][2]benzazepin-2-yl]amino}benzoyl)piperazine-2-carboxylic acid]
CN(C)C1CN(C(=N)c2ccc(Nc3ncc4c(n3)-c3ccc(Cl)cc3C(c3c(F)cccc3F)=NC4)cc2)C1 [Compound I-267, 9-chloro-7-(2,6-difluorophenyl)-N-{4-[[3-(dimethylamino)azetidin-1-yl](imino)methyl]phenyl}-5H-pyrimido[5,4-d][2]benzazepin-2-amine]
CNC1CCN(C(=N)c2ccc(Nc3ncc4c(n3)-c3ccc(Cl)cc3C(c3c(F)cccc3F)=NC4)cc2)C1 (centres unmarked) [Compound I-268, 9-chloro-7-(2,6-difluorophenyl)-N-(4-{imino[3-(methylamino)pyrrolidin-1-yl]methyl}phenyl)-5H-pyrimido[5,4-d][2]benzazepin-2-amine]
CN(C)C1CCN(C(=O)c2cc(Nc3ncc4c(n3)-c3ccc(Cl)cc3C(c3c(F)cccc3F)=NC4)ccc2Cl)CC1 [Compound I-269, 9-chloro-N-(4-chloro-3-{[4-(dimethylamino)piperidin-1-yl]carbonyl}phenyl)-7-(2,6-difluorophenyl)-5H-pyrimido[5,4-d][2]benzazepin-2-amine]
CC1(C)CN=C(c2ccc(Nc3ncc4c(n3)-c3ccc(Cl)cc3C(c3c(F)cccc3F)=NC4)cc2)N1 [Compound I-270, 9-chloro-7-(2,6-difluorophenyl)-N-[4-(5,5-dimethyl-4,5-dihydro-1H-imidazol-2-yl)phenyl]-5H-pyrimido[5,4-d][2]benzazepin-2-amine]
NCC#Cc1ccc2c(c1)C(c1c(F)cccc1F)=NCc1cnc(Nc3ccc(C(=O)O)cc3)nc1-2 [Compound I-272, 4-{[9-(3-aminoprop-1-yn-1-yl)-7-(2,6-difluorophenyl)-5H-pyrimido[5,4-d][2]benzazepin-2-yl]amino}benzoic acid]
O=C(O)c1ccc(Nc2ncc3c(n2)-c2ccc(Br)cc2C(c2c(F)cccc2F)=NC3)cc1 [Compound I-274, 4-{[9-bromo-7-(2,6-difluorophenyl)-5H-pyrimido[5,4-d][2]benzazepin-2-yl]amino}benzoic acid]
O=C(O)c1ccc(Nc2ncc3c(n2)-c2ccc(Cl)cc2C(c2ccccc2C(F)(F)F)=NC3)cc1 [Compound I-277, 4-({9-chloro-7-[2-(trifluoromethyl)phenyl]-5H-pyrimido[5,4-d][2]benzazepin-2-yl}amino)benzoic acid]
NC1CN(C(=O)c2ccc(Nc3ncc4c(n3)-c3ccc(Cl)cc3C(c3c(F)cccc3F)=NC4)cc2)C1 [Compound I-278, N-{4-[(3-aminoazetidin-1-yl)carbonyl]phenyl}-9-chloro-7-(2,6-difluorophenyl)-5H-pyrimido[5,4-d][2]benzazepin-2-amine]
CN1CCN(C(=O)Nc2ccc(Nc3ncc4c(n3)-c3ccc(Cl)cc3C(c3c(F)cccc3F)=NC4)cc2)CC1 [Compound I-280, 4-Methyl-piperazine-1-carboxylic acid {4-[9-chloro-7-(2,6-difluoro-phenyl)-5H-benzo[c]pyrimido[4,5-e]azepin-2-ylamino]-phenyl}-amide]
CNC1CCN(C(=O)c2cc(Nc3ncc4c(n3)-c3ccc(Cl)cc3C(c3c(F)cccc3F)=NC4)ccc2Cl)C1 (centres unmarked) [Compound I-281, 9-chloro-N-(4-chloro-3-{[3-(methylamino)pyrrolidin-1-yl]carbonyl}phenyl)-7-(2,6-difluorophenyl)-5H-pyrimido[5,4-d][2]benzazepin-2-amine]
CNC1CCN(C(=O)c2cc(Nc3ncc4c(n3)-c3ccc(Cl)cc3C(c3c(F)cccc3F)=NC4)ccc2Cl)CC1 [Compound I-282, 9-chloro-N-(4-chloro-3-{[4-(methylamino)piperidin-1-yl]carbonyl}phenyl)-7-(2,6-difluorophenyl)-5H-pyrimido[5,4-d][2]benzazepin-2-amine]
CNCCN(C)C(=O)c1cc(Nc2ncc3c(n2)-c2ccc(Cl)cc2C(c2c(F)cccc2F)=NC3)ccc1Cl [Compound I-283, 2-chloro-5-{[9-chloro-7-(2,6-difluorophenyl)-5H-pyrimido[5,4-d][2]benzazepin-2-yl]amino}-N-methyl-N-[2-(methylamino)ethyl]benzamide]
N=C(c1ccc(Nc2ncc3c(n2)-c2ccc(Cl)cc2C(c2c(F)cccc2F)=NC3)cc1)N1CCC(N)C1 (centres unmarked) [Compound I-284]
OC1CN=C(c2ccc(Nc3ncc4c(n3)-c3ccc(Cl)cc3C(c3c(F)cccc3F)=NC4)cc2)NC1 (centres unmarked) [Compound I-285, 2-(4-{[9-chloro-7-(2,6-difluorophenyl)-5H-pyrimido[5,4-d][2]benzazepin-2-yl]amino}phenyl)-1,4,5,6-tetrahydropyrimidin-5-ol]
COc1cccc(F)c1C1=NCc2cnc(Nc3ccc(C(=O)N4CC(N)C4)cc3)nc2-c2ccc(Cl)cc21 [Compound I-286]
NC1CCN(C(=O)c2ccc(Nc3ncc4c(n3)-c3ccc(Cl)cc3C(c3ccccc3C(F)(F)F)=NC4)cc2)CC1 [Compound I-287, N-{4[(4-aminopiperidin-1-yl)carbonyl]phenyl}-9-chloro-7-[2-(trifluoromethyl)phenyl]-5H-pyrimido[5,4-d][2]benzazepin-2-amine]
CNC1CCN(C(=O)c2ccc(Nc3ncc4c(n3)-c3ccc(Cl)cc3C(c3ccccc3C(F)(F)F)=NC4)cc2)CC1 [Compound I-288, 9-chloro-N-(4-{[4-(methylamino)piperidin-1-yl]carbonyl}phenyl)-7-[2-(trifluoromethyl)phenyl]-5H-pyrimido[5,4-d][2]benzazepin-2-amine]
NC1CCN(C(=O)c2ccc(Nc3ncc4c(n3)-c3ccc(Cl)cc3C(c3ccccc3C(F)(F)F)=NC4)cc2)C1 (centres unmarked) [Compound I-289, N-{4-[(3-aminopyrrolidin-1-yl)carbonyl]phenyl}-9-chloro-7-[2-(trifluoromethyl)phenyl]-5H-pyrimido[5,4-d][2]benzazepin-2-amine]
CNC1CCN(C(=O)c2ccc(Nc3ncc4c(n3)-c3ccc(Cl)cc3C(c3ccccc3C(F)(F)F)=NC4)cc2)C1 (centres unmarked) [Compound I-290, 9-chloro-N-(4-{[3-(methylamino)pyrrolidin-1-yl]carbonyl}phenyl)-7-[2-(trifluoromethyl)phenyl]-5H-pyrimido[5,4-d][2]benzazepin-2-amine]
CNC1CN(C(=O)c2cc(Nc3ncc4c(n3)-c3ccc(Cl)cc3C(c3c(F)cccc3F)=NC4)ccc2Cl)C1 [Compound I-291, 9-chloro-N-(4-chloro-3-{[3-(methylamino)azetidin-1-yl]carbonyl}phenyl)-7-(2,6-difluorophenyl)-5H-pyrimido[5,4-d][2]benzazepin-2-amine]
NC1CCN(C(=O)c2cc(Nc3ncc4c(n3)-c3ccc(Cl)cc3C(c3c(F)cccc3F)=NC4)ccc2Cl)CC1 [Compound I-292, N-{3-[(4-aminopiperidin-1-yl)carbonyl]-4-chlorophenyl}-9-chloro-7-(2,6-difluorophenyl)-5H-pyrimido[5,4-d][2]benzazepin-2-amine]
